Measured values as given in ChEMBL document CHEMBL1201862, “PubChem BioAssay data set” (2004).
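Where inhibition never reached the appropriate level, the endpoint shown equals the highest concentration tested. Otherwise, values were interpolated linearly from a five-concentration, 48-hour dose response in 96-well plates. GI50: concentration for 50% inhibition of growth.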 The source made the active and inactive calls. Cut-off read from the data, not from the text of the source: active = GI50 up to about 1.1 µM and inactive = higher.

Columns and labels:
Experiment in all cases: inhibition of tumour cell growth, NCI panel, 48 h
[1] = test system: A549
[2] = test system: CCRF-CEM
[3] = test system: DU-145
[4] = test system: HCC 2998
[5] = test system: HCT-116
[6] = test system: IGROV-1
[7] = test system: K562
[8] = test system: KM12
[9] = test system: MDA-MB-231
[10] = test system: MDA-MB-435
[11] = test system: MDA-N
[12] = test system: NCI/ADR-RES
[13] = test system: OVCAR-8
[14] = test system: RPMI-8226
[15] = test system: SF-268
[16] = test system: SF-539
[17] = test system: SK-MEL-28
[18] = test system: SN12C
[19] = test system: SNB-75
[20] = test system: U-251

Measured: GI50

COC(=O)[C@H]1C[C@H]1NC(=O)C(CC(=O)OCc1ccccc1)NC(=O)OCc1ccccc1 (stereo not given in full)
inactive: [1] 43.8 µM | [2] 31.6 µM | [3] 73.5 µM | [4] 88.3 µM | [5] 47.6 µM | [6] 52.1 µM | [7] 59.7 µM | [8] 31.6 µM | [9] > 100 µM | [10] 35 µM | [11] 60.1 µM | [12] 28.3 µM | [13] 40 µM | [14] 19.1 µM | [15] 55.2 µM | [16] 97.5 µM | [17] 53.7 µM | [18] > 100 µM | [19] 36.2 µM | [20] 81.5 µM

NC1=Nc2cc(C(F)(F)F)ccc2Sc2nc3ccccc3n21
inactive: [1] > 56 µM | [2] 2.64 µM | [3] > 94.6 µM | [4] > 94.8 µM | [5] 3.73 µM | [6] > 25.7 µM | [7] 5.75 µM | [8] > 37 µM | [9] 38.1 µM | [10] > 100 µM | [11] 5.53 µM | [12] > 100 µM | [13] 12.5 µM | [14] 6.25 µM | [15] 16.6 µM | [16] > 46.5 µM | [17] > 100 µM | [18] 57.5 µM | [19] 19.9 µM | [20] 5.56 µM

COc1ccc(/N=c2/oc3ccccc3cc2C(N)=O)cc1
inactive: [1] 42 µM | [2] > 100 µM | [3] > 100 µM | [4] > 100 µM | [5] 26 µM | [6] 24.5 µM | [7] > 100 µM | [8] 43.3 µM | [9] 30.5 µM | [10] 92.5 µM | [11] > 100 µM | [12] 39 µM | [13] 27.4 µM | [14] > 100 µM | [15] 17.9 µM | [16] 23.1 µM | [17] > 100 µM | [18] > 100 µM | [19] 36.6 µM | [20] 33.3 µM

CCOC(=O)C1=NNC(C(=O)c2ccccc2)C1c1ccccc1 (stereo not given)
inactive: [1] 19.1 µM | [2] 1.64 µM | [3] 13.2 µM | [4] 1.96 µM | [5] 2.52 µM | [6] 4.6 µM | [7] 1.47 µM | [8] 6.87 µM | [9] 3.94 µM | [10] 1.91 µM | [11] 1.85 µM | [12] 4.35 µM | [13] 5.51 µM | [14] 3.85 µM | [15] 5 µM | [16] 2.17 µM | [17] 1.91 µM | [18] 2.08 µM | [19] 5.7 µM | [20] 3.39 µM
